This is an account of results in US20260200905A1, “MICROBIOCIDAL TETRAHYDROISOQUINOLINE DERIVATIVES” (SYNGENTA CROP PROTECTION AG, priority 2022, published 2026).

SMILES strings stand for the structures.

Assay [1] concerns Monographella nivalis (Microdochium nivale). Kind of assay: Monographella nivalis (Microdochium nivale) / liquid culture (foot rot cereals). In kind it is cell-based. Conditions: growth inhibition photometrically 4 to 5 days after application, read-out: control of Monographella nivalis. How it is done:
Example B5: Monographella nivalis (Microdochium nivale)/Liquid Culture (Foot Rot Cereals) Conidia of the fungus from cryogenic storage are directly mixed into nutrient broth (PDB potato dextrose broth). After placing a (DMSO) solution of test compound into a microtiter plate (96-well format), the nutrient broth containing the fungal spores is added. The test plates are incubated at 24° C. and the inhibition of growth is determined photometrically 4 to 5 days after application.

Assay [2] relates to Mycosphaerella graminicola (Septoria tritici). Put plainly: Mycosphaerella graminicola (Septoria tritici) / liquid culture (Septoria blotch). Type of assay: cell-based. Conditions: Zymoseptoria tritici, growth inhibition photometrically 4 to 5 days after application, read-out: control of Mycosphaerella graminicola. As to the method: Example B12: Mycosphaerella graminicola (Septoria tritici)/Liquid Culture (Septoria Blotch) Conidia of the fungus from cryogenic storage are directly mixed into nutrient broth (PDB potato dextrose broth). After placing a (DMSO) solution of test compound into a microtiter plate (96-well format), the nutrient broth containing the fungal spores is added. The test plates are incubated at 24° C. and the inhibition of growth is determined photometrically 4 to 5 days after application.

The test system of assay [3] is Mycosphaerella arachidis (Cercospora arachidicola). Kind of assay: Mycosphaerella arachidis (Cercospora arachidicola) / liquid culture (early leaf spot). Type of assay: cell-based. Conditions: growth inhibition photometrically 4 to 5 days after application, read-out: control of Mycosphaerella arachidis. As to the method: Example B6: Mycosphaerella arachidis (Cercospora arachidicola)/Liquid Culture (Early Leaf Spot) Conidia of the fungus from cryogenic storage are directly mixed into nutrient broth (PDB potato dextrose broth). After placing a (DMSO) solution of test compound into a microtiter plate (96-well format), the nutrient broth containing the fungal spores is added. The test plates are incubated at 24° C. and the inhibition of growth is determined photometrically 4 to 5 days after application.

Another assay deals with Pyrenophora teres. Put plainly: Pyrenophora teres / barley / leaf disc preventative (net blotch). Conditions: 200 ppm, compared to untreated control. Type of assay: in vivo. As to the method: Example B9: Pyrenophora teres/Barley/Leaf Disc Preventative (Net Blotch) Barley leaf segments cv. Hasso are placed on agar in a multiwell plate (24-well format) and sprayed with the formulated test compound diluted in water. The leaf segments are inoculated with a spore suspension of the fungus 2 days after application. The inoculated leaf segments are incubated at 20° C. and 65% rh under a light regime of 12 h light/12 h darkness in a climate cabinet and the activity of a compound is assessed as disease control compared to untreated when an appropriate level of disease damage appears in untreated check leaf segments (5 to 7 days after application).

The test system of assay [4] is Thanatephorus cucumeris (Rhizoctonia solani). Kind of assay: Thanatephorus cucumeris (Rhizoctonia solani) / liquid culture (foot rot, damping-off). In kind it is cell-based. Conditions: 20 ppm, growth inhibition photometrically 3 to 4 days after application. As to the method:
Example B11: Thanatephorus cucumeris (Rhizoctonia solani)/Liquid Culture (Foot Rot, Damping-Off) Mycelia fragments of a newly grown liquid culture of the fungus are directly mixed into nutrient broth (PDB potato dextrose broth). After placing a (DMSO) solution of the test compounds into a microtiter plate (96-well format), the nutrient broth containing the fungal material is added. The test plates are incubated at 24° C. and the inhibition of growth is determined photometrically 3 to 4 days after application.

The next assay deals with Pythium ultimum. Put plainly: Pythium ultimum / liquid culture (seedling damping off). Type of assay: cell-based. Conditions: 20 ppm, growth inhibition photometrically 2 to 3 days after application. How it is done:
Example B10: Pythium ultimum/Liquid Culture (Seedling Damping Off) Mycelia fragments and oospores of a newly grown liquid culture of the fungus are directly mixed into nutrient broth (PDB potato dextrose broth). After placing a (DMSO) solution of test compound into a microtiter plate (96-well format), the nutrient broth containing the fungal mycelia/spore mixture is added. The test plates are incubated at 24° C. and the inhibition of growth is determined photometrically 2 to 3 days after application.

Assay [5] concerns Phaeosphaeria nodorum (Septoria nodorum). Put plainly: Phaeosphaeria nodorum (Septoria nodorum) / wheat / leaf disc preventative (glume blotch). Type of assay: in vivo. Conditions: 200 ppm, compared to untreated control. How it is done: Example B4: Phaeosphaeria Nodorum (Septoria nodorum)/Wheat/Leaf Disc Preventative (Glume Blotch) Wheat leaf segments cv. Kanzler are placed on agar in a multiwell plate (24-well format) and sprayed with the formulated test compound diluted in water. The leaf disks are inoculated with a spore suspension of the fungus 2 days after application. The inoculated test leaf disks are incubated at 20° C. and 75% rh under a light regime of 12 h light/12 h darkness in a climate cabinet and the activity of a compound is assessed as percent disease control compared to untreated when an appropriate level of disease damage appears in untreated check leaf disks (5 to 7 days after application).

The subject of assay [6] is Puccinia recondita f. sp. tritici. Put plainly: Puccinia recondita f. sp. tritici / wheat / leaf disc curative (brown rust). In kind it is in vivo. Conditions: 200 ppm, applied 1 day after inoculation. As to the method: Example B7: Puccinia recondita f. Sp. Tritici/Wheat/Leaf Disc Curative (Brown Rust) Wheat leaf segments cv. Kanzler are placed on agar in multiwell plates (24-well format). The leaf segments are inoculated with a spore suspension of the fungus. Plates are stored in darkness at 19° C. and 75% rh. The formulated test compound diluted in water is applied 1 day after inoculation. The leaf segments are incubated at 19° C. and 75% rh under a light regime of 12 h light/12 h darkness in a climate cabinet and the activity of a compound is assessed as percent disease control compared to untreated when an appropriate level of disease damage appears in untreated check leaf segments (6 to 8 days after application).

On to `O=C(c1cc(-c2ccc(F)cc2F)on1)N1Cc2c(F)cccc2C(c2cccnc2)C1` (centres unmarked) [Compound P-1, [5-(2,4-difluorophenyl)isoxazol-3-yl]-[8-fluoro-4-(3-pyridyl)-3,4-dihydro-1H-isoquinolin-2-yl]methanone], for which the inhibition of growth at 20 ppm in assay [1], in assay [2] and in assay [3] was at least 80% each time. Further, the “control of Pyrenophora teres” value in the assay with Pyrenophora teres is reported as “at least 80%”.

Take `O=C(c1cc(-c2ccc(F)cc2F)on1)N1Cc2ccccc2C(c2ccncc2)C1` (centres unmarked) [Compound P-2, [5-(2,4-difluorophenyl)isoxazol-3-yl]-4-[4-(4-pyridyl)-3,4-dihydro-1H-isoquinolin-2-yl]methanone]: in assay [4], the “control of Thanatephorus cucumeris” value was “at least 80%”. The inhibition of growth at 20 ppm in assay [1] and in assay [2] was at least 80% in each case. In addition, in the assay on Pythium ultimum, the “control of Pythium ultimum” value is given as “at least 80%”.

For `Cc1ccc(C2CN(C(=O)c3cc(-c4ccc(F)cc4F)on3)Cc3ccccc32)cn1` (centres unmarked) [Compound P-3, [5-(2,4-difluorophenyl)isoxazol-3-yl]-[4-(6-methyl-3-pyridyl)-3,4-dihydro-1H-isoquinolin-2-yl]methanone], the inhibition of growth at 20 ppm in assay [1], in assay [2] and in assay [3] was at least 80% in each case.

`O=C(c1cc(-c2ccc(F)cc2F)on1)N1Cc2ccccc2C(c2cncnc2)C1` (centres unmarked) [Compound P-4, [5-(2,4-difluorophenyl)isoxazol-3-yl]-(4-pyrimidin-5-yl-3,4-dihydro-1H-isoquinolin-2-yl)methanone]: the inhibition of growth at 20 ppm in assay [1], in assay [2] and in assay [3] was at least 80% in each case.

Consider `O=C(c1cc(-c2ccc(F)cc2F)on1)N1Cc2ccccc2C(c2cccnc2)C1` (centres unmarked) [Compound P-5, [5-(2,4-difluorophenyl)isoxazol-3-yl]-[4-(3-pyridyl)-3,4-dihydro-1H-isoquinolin-2-yl]methanone], for which the inhibition of growth at 20 ppm in assay [1], in assay [2] and in assay [3] was at least 80% each time.

`O=C(c1cc(-c2ccccc2)on1)N1Cc2ccccc2C(c2cccnc2)C1` (centres unmarked) [Compound P-6, (5-phenylisoxazol-3-yl)-[4-(3-pyridyl)-3,4-dihydro-1H-isoquinolin-2-yl]methanone]: the inhibition of growth at 20 ppm in assay [1], in assay [2] and in assay [3] was at least 80% throughout.

Regarding `Cn1nc(C2CN(C(=O)c3cc(-c4ccc(F)cc4F)on3)Cc3ccccc32)cc1Cl` (centres unmarked) [Compound P-7, [4-(5-chloro-1-methyl-pyrazol-3-yl)-3,4-dihydro-1H-isoquinolin-2-yl]-[5-(2,4-difluorophenyl)isoxazol-3-yl]methanone], the “control of Phaeosphaeria nodorum” value in assay [5] is “at least 80%”. The inhibition of growth at 20 ppm in assay [1], in assay [2] and in assay [3] was at least 80% in each case.

Take `O=C(c1cc(-c2ccc(F)cc2F)on1)N1Cc2ccccc2C(c2cnccn2)C1` (centres unmarked) [Compound P-8, [5-(2,4-difluorophenyl)isoxazol-3-yl]-(4-pyrazin-2-yl-3,4-dihydro-1H-isoquinolin-2-yl]methanone]: the inhibition of growth at 20 ppm in assay [1], in assay [2] and in assay [3] was at least 80% in each case.

For `O=C(c1cc(-c2ccc(F)cc2F)on1)N1Cc2cccc(F)c2C(c2cccnc2)C1` (centres unmarked) [Compound P-9, [5-(2,4-difluorophenyl)isoxazol-3-yl]-[5-fluoro-4-(3-pyridyl)-3,4-dihydro-1H-isoquinolin-2-yl]methanone], the inhibition of growth at 20 ppm in assay [1], in assay [2] and in assay [3] was at least 80% throughout.

Take `Cn1c(Cl)nc(C2CN(C(=O)c3cc(-c4ccc(F)cc4F)on3)Cc3ccccc32)c1Cl` (centres unmarked) [Compound P-10, [4-(2,5-dichloro-1-methyl-imidazol-4-yl)-3,4-dihydro-1H-isoquinolin-2-yl]-[5-(2,4-difluorophenyl)isoxazol-3-yl]methanone]: the inhibition of growth at 20 ppm in assay [2] and in assay [3] was at least 80% in each case.

In the case of `Cc1c(C2CN(C(=O)c3nnc(-c4ccc(F)cc4F)s3)Cc3ccccc32)nc(Cl)n1C` (centres unmarked) [Compound P-11, [4-(2-chloro-1,5-dimethyl-imidazol-4-yl)-3,4-dihydro-1H-isoquinolin-2-yl]-[5-(2,4-difluorophenyl)-1,3,4-thiadiazol-2-yl]methanone], the inhibition of growth at 20 ppm in assay [2] and in assay [3] was at least 80% each time.

As for `O=C(c1cc(-c2ccc(F)cc2F)on1)N1Cc2ccccc2C(c2ccc(F)nc2)C1` (centres unmarked) [Compound P-12, [5-(2,4-difluorophenyl)isoxazol-3-yl]-[4-(6-fluoro-3-pyridyl)-3,4-dihydro-1H-isoquinolin-2-yl]methanone], the inhibition of growth at 20 ppm in assay [1] and in assay [2] was at least 80% in each case.

With `Cc1ncccc1C1CN(C(=O)c2cc(-c3ccc(F)cc3F)on2)Cc2ccccc21` (centres unmarked) [Compound P-13, [5-(2,4-difluorophenyl)isoxazol-3-yl]-[4-(2-methyl-3-pyridyl)-3,4-dihydro-1H-isoquinolin-2-yl]methanone], the inhibition of growth at 20 ppm in assay [2] and in assay [3] was at least 80% each time.

Regarding `Cc1ccncc1C1CN(C(=O)c2cc(-c3ccc(F)cc3F)on2)Cc2ccccc21` (centres unmarked) [Compound P-14, [5-(2,4-difluorophenyl)isoxazol-3-yl]-[4-(4-methyl-3-pyridyl)-3,4-dihydro-1H-isoquinolin-2-yl]methanone], the inhibition of growth at 20 ppm in assay [2] and in assay [3] was at least 80% each time.

For the compound `O=C(c1cc(-c2ccc(F)cc2F)on1)N1Cc2ccccc2C(c2ccccn2)C1` (centres unmarked) [Compound P-15, [5-(2,4-difluorophenyl)isoxazol-3-yl]-[4-(2-pyridyl)-3,4-dihydro-1H-isoquinolin-2-yl]methanone], the inhibition of growth at 20 ppm in assay [1] and in assay [2] was at least 80% each time.

As to `Cc1c(C2CN(C(=O)c3cc(-c4ccc(F)cc4F)no3)Cc3ccccc32)cc(C#N)n1C` (centres unmarked) [Compound P-19, 4-[2-[3-(2,4-difluorophenyl)isoxazole-5-carbonyl]-3,4-dihydro-1H-isoquinolin-4-yl]-1,5-dimethyl-pyrrole-2-carbonitrile], the inhibition of growth at 20 ppm in assay [2] is at least 80%. The “control of Puccinia recondita f sp. tritici” value in assay [6] was “at least 80%”.
